Experimental data reported in BindingDB's records for doi:10.1021/jm00045a011 (Eisai, 1994).

Biological target: Arachidonate 5-lipoxygenase (Homo sapiens)
Assay: Tested for inhibitory activity against leukotriene B4 (LTB4) production in human neutrophils

## Cc1c(O)c(C)c2sc(NCc3ccc(S(N)(=O)=O)cc3)nc2c1C [4-[(6-Hydroxy-4,5,7-trimethyl-benzothiazol-2-ylamino)-methyl]-benzenesulfonamide]
  IC50: 30 nM
